# Laboratory results as given in ChEMBL document CHEMBL5727342, “Imidazo[4,5-C]pyridine and pyrrolo[2,3-C]pyridine derivatives as SSAO inhibitors” (2018).
# Target: Voltage-gated inwardly rectifying potassium channel KCNH2 (Homo sapiens, UniProt Q12809)
# Experiment: Electrophysiological recordings were made from a Chinese Hamster Lung cell line stably expressing the full length hERG channel. Single cell ion currents were measured in the perforated patch clamp configuration (100 ug/mL amphoterocin) at room temperature using an IonWorks Quattro instrument. The internal solution contained 140 mM KCl, 1 mM MgCl2, 1 mM EGTA and 20 mM HEPES and was buffered to pH 7.3. […] This sequence was repeated 5 times at a frequency of 0.25 Hz. […] Compounds were incubated for 6-7 min prior to a second measurement of the hERG signal using an identical pulse train.
# Chain of Voltage-gated inwardly rectifying potassium channel KCNH2 (Q12809 whole entry): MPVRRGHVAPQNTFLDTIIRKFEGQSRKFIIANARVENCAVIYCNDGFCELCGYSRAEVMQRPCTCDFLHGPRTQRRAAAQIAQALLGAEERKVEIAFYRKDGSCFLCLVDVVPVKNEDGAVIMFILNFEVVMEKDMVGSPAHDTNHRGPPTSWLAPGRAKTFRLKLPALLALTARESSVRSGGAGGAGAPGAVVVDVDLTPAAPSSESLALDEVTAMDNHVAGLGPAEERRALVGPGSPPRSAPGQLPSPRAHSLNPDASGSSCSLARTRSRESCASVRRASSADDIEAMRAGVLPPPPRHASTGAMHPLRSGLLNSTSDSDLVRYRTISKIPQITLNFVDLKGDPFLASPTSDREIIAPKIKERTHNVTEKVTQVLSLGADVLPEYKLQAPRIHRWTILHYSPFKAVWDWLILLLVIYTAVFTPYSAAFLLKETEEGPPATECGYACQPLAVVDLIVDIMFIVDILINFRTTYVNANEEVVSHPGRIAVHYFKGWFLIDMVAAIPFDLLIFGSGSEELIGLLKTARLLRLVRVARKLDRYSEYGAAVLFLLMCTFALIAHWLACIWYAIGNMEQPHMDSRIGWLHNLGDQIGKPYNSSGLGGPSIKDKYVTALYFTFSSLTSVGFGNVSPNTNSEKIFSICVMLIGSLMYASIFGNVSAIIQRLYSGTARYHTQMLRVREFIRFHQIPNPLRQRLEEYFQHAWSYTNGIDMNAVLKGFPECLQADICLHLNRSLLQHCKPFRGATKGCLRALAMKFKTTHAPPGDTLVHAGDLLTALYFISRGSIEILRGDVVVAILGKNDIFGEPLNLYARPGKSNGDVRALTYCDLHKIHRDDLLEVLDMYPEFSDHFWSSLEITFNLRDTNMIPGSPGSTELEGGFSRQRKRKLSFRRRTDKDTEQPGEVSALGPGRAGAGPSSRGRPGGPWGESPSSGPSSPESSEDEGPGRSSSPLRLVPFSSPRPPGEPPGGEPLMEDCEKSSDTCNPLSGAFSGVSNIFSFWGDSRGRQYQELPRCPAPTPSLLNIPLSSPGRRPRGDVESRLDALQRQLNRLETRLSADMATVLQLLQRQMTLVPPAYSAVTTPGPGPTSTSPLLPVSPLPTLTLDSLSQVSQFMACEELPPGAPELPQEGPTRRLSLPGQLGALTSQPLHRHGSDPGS
smiles,measurement,value
Clc1ccc(-n2c(-c3ccncc3)nc3ccncc32)cc1,IC50,in the range around 5.5 µM
